# How the values were obtained:
# Assay type in all cases: cell-based, human
# [1] = tested on: H929 BCMA-expressing myeloma cell line co-cultured with T-cells; test: CC-93269-induced cytokine secretion, T-cell co-culture with H929; settings: 1 μM DEX vs DMSO control, highest concentration of CC-93269, 72 hours, 3 donors
# [2] = tested on: BCMA-expressing tumour cell lines co-cultured with T-cells; test: CC-93269-mediated cytokine release across the four co-cultures; settings: 1 μM DEX vs DMSO control, highest concentration of CC-93269
# [3] = tested on: KMS12-PE BCMA-expressing myeloma cell line co-cultured with T-cells; test: CC-93269-induced cytokine secretion, T-cell co-culture with KMS12-PE; settings: 1 μM DEX vs DMSO control, highest concentration of CC-93269, 72 hours, 3 donors
# [4] = tested on: MM1S BCMA-expressing myeloma cell line co-cultured with T-cells; test: CC-93269-induced cytokine secretion, T-cell co-culture with MM1S; settings: 1 μM DEX vs DMSO control, highest concentration of CC-93269, 72 hours, 3 donors
# [5] = tested on: SKMM2 BCMA-expressing myeloma cell line co-cultured with T-cells; test: CC-93269-induced cytokine secretion, T-cell co-culture with SKMM2; settings: 1 μM DEX vs DMSO control, highest concentration of CC-93269, 72 hours, 3 donors
# BCMA+ tumour cell lines = test: CC-93269-induced redirected lysis of BCMA+ tumour cell lines (overall); settings: co-treatment with CC-93269
# Method: The cocultures were incubated at 37° C. with 5% CO2. After 72 hours of incubation, culture supernatants were harvested and stored at −80° C. The cells were labeled with Live/Dead Fixable Aqua Dead Cell Stain, according to the manufacturer's instructions for 30 minutes at RT. Subsequently, cells were stained with antibodies against the following cell surface markers: CD2, CD3, CD4, CD8, CD69, CD25, HLA-DR, and CD154 in a final volume of 50 μL of flow staining buffer. After staining for cell surface molecules, the cells were washed once with 150 μL flow staining buffer, resuspended in 50 μL of BD Cytofix fixation buffer, and incubated for 30 minutes at RT. Cells were washed with 150 μL of flow staining buffer and resuspended in a final volume of 50 μL of flow staining buffer for analysis on an IQUE Screener plus instrument (Intellicyt, Albuquerque, N. Mex.). […] The IC50 values were calculated using non-linear regression analysis, sigmoidal dose-response using GraphPad Prism (version 5.0) software.
smiles,measurement,setting,value
"C[C@@H]1C[C@H]2[C@@H]3CCC4=CC(=O)C=C[C@]4(C)[C@@]3(F)[C@@H](O)C[C@]2(C)[C@@]1(O)C(=O)CO [Dexamethasone, dexamethasone]","% Reduction of CC-93269-induced IL-2 secretion, Mean",[1],74.1%
same,"% Reduction of CC-93269-induced TNF-α secretion, Mean",[1],61.8%
same,lowering of CC-93269-mediated release of IL-2,[2],48.3-74.1%
same,lowering of CC-93269-mediated release of TNF-α,[2],46.3-61.8%
same,"% Reduction of CC-93269-induced IL-2 secretion, Mean",[3],48.3%
same,"% Reduction of CC-93269-induced TNF-α secretion, Mean",[3],53.9%
same,"% Reduction of CC-93269-induced IL-2 secretion, Mean",[4],57.6%
same,"% Reduction of CC-93269-induced TNF-α secretion, Mean",[4],50.3%
same,"% Reduction of CC-93269-induced IL-2 secretion, Mean",[5],56.5%
same,"% Reduction of CC-93269-induced TNF-α secretion, Mean",[5],46.3%
same,effect of dexamethasone on CC-93269-induced redirected lysis / cytotoxic activity,BCMA+ tumour cell lines,minimally affected
same,effect of dexamethasone on CC-93269-induced redirected lysis / cytotoxic activity,BCMA+ tumour cell lines; listed as dexamethasone,minimal suppressive impact
